Reference: ChEMBL document CHEMBL5038598, “Design and Synthesis of Pyrrolo[2,3-d]pyrimidine-Derived Leucine-Rich Repeat Kinase 2 (LRRK2) Inhibitors Using a Checkpoint Kinase 1 (CHK1)-Derived Crystallographic Surrogate” (J Med Chem, 2021)

What was measured:
[1] = Binding affinity to human PIP5K2C (M1/A421) WT expressed in mammalian system assessed as dissociation constant measured at 1 uM by DiscoveRx KINOMEscan assay
BCRP (human) [2] = test: Efflux ratio of apparent permeability in MDCK cells expressing human BCRP; type: ADME, cell-based, Canis lupus familiaris; settings: dog
[3] = Clearance in human liver microsomes; type: ADME, Microsome; settings: read-out: CLH (converted)
[4] = biological target: T1, Leucine-rich repeat serine/threonine-protein kinase 2 (Homo sapiens, UniProt Q5S007); test: Binding affinity to human LRRK2 WT expressed in mammalian system assessed as dissociation constant measured at 1 uM by DiscoveRx KINOMEscan assay
[5] = biological target: T1, Leucine-rich repeat serine/threonine-protein kinase 2; test: Inhibition of LRRK2-pSer935 in LRRK2 WT expressing human HEK293 cells and measured after 48 hrs by ICW assay; type: cell-based
BCRP (human) [6] = test: Apparent permeability in MDCK cells expressing human BCRP; type: ADME, cell-based, Canis lupus familiaris; settings: dog
[7] = Volume of distribution in steady state in Sprague-Dawley rat plasma at 1 mg/kg, IV […]; type: ADME, organism-based; settings: read-out: Vdss
[8] = biological target: Receptor-type tyrosine-protein kinase FLT3 (Homo sapiens, UniProt P36888, D835V/ITD); test: Binding affinity to human FLT3 ITD, D835V (V592/Y969) mutant expressed in mammalian system assessed as dissociation constant measured at 1 uM by DiscoveRx KINOMEscan assay
P-glycoprotein (human) = test: Efflux ratio of permeability across basolateral to apical side over apical to basolateral side in MDCK-MDR1 cells expressing human P-glycoprotein; settings: dog
[9] = biological target: Phosphatidylinositol 4-kinase beta (Homo sapiens, UniProt Q9UBF8); test: Inhibition of PI4KB expressed in human PBMCs measured at 10 uM by KiNativ profiling analysis relative to control
[10] = Oral bioavailability in Sprague-Dawley rat plasma at 2 mg/kg relative to liver blood flow; type: ADME, organism-based
[11] = Drug uptake in mdrla-deficient C57BL/6 mouse plasma at 5 mg/kg, sc and measured after 0.5 hrs; type: ADME, organism-based
[12] = Ratio of unbound drug level in Md1a deficient C57BL/6 mouse brain to plasma at 5 mg/kg, sc and measured after 0.5 hrs; type: ADME, organism-based
[13] = Clearance in Sprague dawley rat plasma at 1 mg/kg, IV relative to liver blood flow; type: ADME, organism-based
[14] = Mutagenecity in Salmonella enterica subsp. enterica serovar Typhimurium by Ames test; type: toxicity
[15] = Ratio of drug level in Mdr1A deficient C57BL/6 mouse brain to plasma at 5 mg/kg, sc and measured after 0.5 hrs; type: ADME, organism-based
[16] = biological target: Leucine-rich repeat serine/threonine-protein kinase 2 (Homo sapiens, UniProt Q5S007, G2019S); test: Binding affinity to human LRRK2 (H970/E2527) G2019S mutant expressed in mammalian system assessed as dissociation constant measured at 1 uM by DiscoveRx KINOMEscan assay
[17] = Drug uptake in P-gp la-deficient C57BL/6 mouse brain at 5 mg/kg, sc and measured after 0.5 hrs; type: ADME, organism-based; settings: read-out: Drug uptake
[18] = Ratio of unbound drug level in C57BL/6 WT mouse brain to plasma at 5 mg/kg, sc and measured after 0.5 hrs; type: ADME, organism-based; settings: C57BL/6, mouse
[19] = Drug uptake in Mdr1a deficient C57BL/6 mouse plasma at 5 mg/kg, sc and measured after 1 hrs; type: ADME, organism-based
[20] = Drug uptake in C57BL/6 WT mouse brain at 5 mg/kg, sc and measured after 1 hrs; type: ADME, organism-based; settings: C57BL/6, mouse, read-out: Drug uptake
[21] = Ratio of drug level in C57BL/6 WT mouse brain to plasma at 5 mg/kg, sc and measured after 1 hrs; type: ADME, organism-based; settings: C57BL/6, mouse
[22] = Ratio of drug level in Mdr1A deficient C57BL/6 mouse brain to plasma at 5 mg/kg, sc and measured after 1 hrs; type: ADME, organism-based
[23] = Ratio of unbound drug level in C57BL/6 WT mouse brain to plasma measured at 5 mg/kg, sc and measured after 1 hrs; type: ADME, organism-based; settings: C57BL/6, mouse
[24] = Drug uptake in C57BL/6 WT mouse plasma at 5 mg/kg, sc and measured after 0.5 hrs; type: ADME, organism-based; settings: C57BL/6, mouse
[25] = Ratio of unbound drug level in Md1a deficient C57BL/6 mouse brain to plasma at 5 mg/kg, sc and measured after 1 hrs; type: ADME, organism-based
[26] = Drug uptake in C57BL/6 WT mouse plasma at 5 mg/kg, sc and measured after 1 hrs; type: ADME, organism-based; settings: C57BL/6, mouse
[27] = Drug uptake in C57BL/6 WT mouse brain at 5 mg/kg, sc and measured after 0.5 hrs; type: ADME, organism-based; settings: C57BL/6, mouse, read-out: Drug uptake
[28] = Drug uptake in Mdr1a deficient C57BL/6 mouse brain at 5 mg/kg, sc and measured after 1 hrs; type: ADME, organism-based; settings: read-out: Drug uptake

T1 sequence (Q5S007 whole entry): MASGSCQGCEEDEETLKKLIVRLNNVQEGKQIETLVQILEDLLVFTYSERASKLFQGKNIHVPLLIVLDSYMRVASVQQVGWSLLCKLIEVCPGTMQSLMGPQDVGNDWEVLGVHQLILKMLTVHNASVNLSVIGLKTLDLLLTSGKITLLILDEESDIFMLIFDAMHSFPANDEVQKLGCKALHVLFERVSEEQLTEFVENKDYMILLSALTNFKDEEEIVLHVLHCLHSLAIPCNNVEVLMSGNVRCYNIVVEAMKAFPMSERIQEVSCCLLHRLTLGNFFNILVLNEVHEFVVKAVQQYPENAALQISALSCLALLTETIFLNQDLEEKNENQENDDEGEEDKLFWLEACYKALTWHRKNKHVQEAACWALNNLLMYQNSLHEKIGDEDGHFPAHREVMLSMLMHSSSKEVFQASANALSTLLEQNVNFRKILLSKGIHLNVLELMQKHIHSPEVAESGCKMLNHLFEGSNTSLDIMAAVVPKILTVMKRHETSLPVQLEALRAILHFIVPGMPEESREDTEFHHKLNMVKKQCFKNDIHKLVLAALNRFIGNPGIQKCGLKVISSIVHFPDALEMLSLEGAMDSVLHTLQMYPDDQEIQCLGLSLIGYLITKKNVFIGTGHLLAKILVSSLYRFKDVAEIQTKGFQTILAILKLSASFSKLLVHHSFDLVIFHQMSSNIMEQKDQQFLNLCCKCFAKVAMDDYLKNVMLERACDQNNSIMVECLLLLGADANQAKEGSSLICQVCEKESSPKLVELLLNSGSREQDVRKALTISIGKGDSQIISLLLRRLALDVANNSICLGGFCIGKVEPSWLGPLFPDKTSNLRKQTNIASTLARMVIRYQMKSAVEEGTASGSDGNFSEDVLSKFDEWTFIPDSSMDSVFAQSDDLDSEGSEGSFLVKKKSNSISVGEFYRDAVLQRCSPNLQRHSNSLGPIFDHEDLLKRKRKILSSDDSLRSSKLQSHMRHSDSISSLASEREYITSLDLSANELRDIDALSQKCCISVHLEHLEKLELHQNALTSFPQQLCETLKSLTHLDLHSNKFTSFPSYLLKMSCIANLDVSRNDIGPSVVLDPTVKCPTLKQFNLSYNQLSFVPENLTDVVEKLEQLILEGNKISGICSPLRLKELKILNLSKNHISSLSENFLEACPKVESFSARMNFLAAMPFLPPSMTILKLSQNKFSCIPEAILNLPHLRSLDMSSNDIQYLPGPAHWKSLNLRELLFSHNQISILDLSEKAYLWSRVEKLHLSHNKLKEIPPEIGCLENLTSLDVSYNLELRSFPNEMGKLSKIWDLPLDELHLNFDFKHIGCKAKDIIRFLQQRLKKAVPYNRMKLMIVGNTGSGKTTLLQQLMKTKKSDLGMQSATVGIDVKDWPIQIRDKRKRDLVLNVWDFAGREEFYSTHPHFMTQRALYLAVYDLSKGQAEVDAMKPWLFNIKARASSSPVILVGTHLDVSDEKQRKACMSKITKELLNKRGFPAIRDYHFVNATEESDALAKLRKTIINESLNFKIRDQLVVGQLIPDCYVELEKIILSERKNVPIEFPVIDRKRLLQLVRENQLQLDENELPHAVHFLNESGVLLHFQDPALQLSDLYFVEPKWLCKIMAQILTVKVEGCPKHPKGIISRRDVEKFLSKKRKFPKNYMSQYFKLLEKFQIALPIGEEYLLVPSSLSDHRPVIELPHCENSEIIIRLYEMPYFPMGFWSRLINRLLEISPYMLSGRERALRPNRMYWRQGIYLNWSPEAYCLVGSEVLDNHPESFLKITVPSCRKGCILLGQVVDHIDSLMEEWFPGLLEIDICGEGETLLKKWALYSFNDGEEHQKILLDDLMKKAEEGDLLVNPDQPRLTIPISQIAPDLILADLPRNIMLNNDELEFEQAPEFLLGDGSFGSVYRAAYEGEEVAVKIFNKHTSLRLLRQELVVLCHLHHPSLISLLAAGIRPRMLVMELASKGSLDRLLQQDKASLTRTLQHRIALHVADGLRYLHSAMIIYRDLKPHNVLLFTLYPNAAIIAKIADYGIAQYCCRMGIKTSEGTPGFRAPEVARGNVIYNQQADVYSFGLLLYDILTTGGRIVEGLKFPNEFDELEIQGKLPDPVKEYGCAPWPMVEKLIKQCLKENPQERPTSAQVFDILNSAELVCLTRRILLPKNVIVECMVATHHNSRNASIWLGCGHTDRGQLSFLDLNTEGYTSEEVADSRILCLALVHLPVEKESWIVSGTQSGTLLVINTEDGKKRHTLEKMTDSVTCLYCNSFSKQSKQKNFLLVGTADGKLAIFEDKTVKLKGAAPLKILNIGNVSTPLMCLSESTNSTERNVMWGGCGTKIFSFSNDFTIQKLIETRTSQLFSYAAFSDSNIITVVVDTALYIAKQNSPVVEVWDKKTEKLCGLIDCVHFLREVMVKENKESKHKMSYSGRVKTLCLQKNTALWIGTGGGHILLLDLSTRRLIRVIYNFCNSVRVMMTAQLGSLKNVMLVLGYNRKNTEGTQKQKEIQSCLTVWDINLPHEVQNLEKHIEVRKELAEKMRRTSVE
Phosphatidylinositol 4-kinase beta, sequence (Q9UBF8 2-816 limits assumed): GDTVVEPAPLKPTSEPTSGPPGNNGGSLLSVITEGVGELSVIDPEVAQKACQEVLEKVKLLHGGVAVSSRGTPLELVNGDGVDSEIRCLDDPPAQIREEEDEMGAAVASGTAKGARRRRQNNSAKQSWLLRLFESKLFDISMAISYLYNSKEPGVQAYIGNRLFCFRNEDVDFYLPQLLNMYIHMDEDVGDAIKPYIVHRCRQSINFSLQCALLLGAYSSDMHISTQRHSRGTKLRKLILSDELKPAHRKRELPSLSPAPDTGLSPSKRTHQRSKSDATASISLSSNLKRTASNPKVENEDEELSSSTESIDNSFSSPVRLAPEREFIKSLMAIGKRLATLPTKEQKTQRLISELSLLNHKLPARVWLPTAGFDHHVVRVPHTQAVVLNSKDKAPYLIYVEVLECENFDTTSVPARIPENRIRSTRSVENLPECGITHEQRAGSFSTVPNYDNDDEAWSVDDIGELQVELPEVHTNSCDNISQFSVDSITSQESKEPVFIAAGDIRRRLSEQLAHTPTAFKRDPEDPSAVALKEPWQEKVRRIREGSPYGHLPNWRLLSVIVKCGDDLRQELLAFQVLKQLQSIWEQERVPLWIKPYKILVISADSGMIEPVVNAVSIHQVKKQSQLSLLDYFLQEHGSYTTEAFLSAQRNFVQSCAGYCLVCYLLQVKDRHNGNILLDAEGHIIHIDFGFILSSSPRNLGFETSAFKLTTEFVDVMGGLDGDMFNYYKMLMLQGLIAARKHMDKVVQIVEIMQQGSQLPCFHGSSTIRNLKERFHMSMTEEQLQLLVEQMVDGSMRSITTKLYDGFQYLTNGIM
Leucine-rich repeat serine/threonine-protein kinase 2 (Homo sapiens, UniProt Q5S007, G2019S), sequence (Q5S007 whole entry G2019S): as the sequence (Q5S007 whole entry) above, with G2019S counted along it

Cc1c(Nc2nc(N)c3c(C#N)c(N4CCC[C@H]4C)n(C)c3n2)cnn1[C@@H]1CCOC1
Kd [1]: 190 nM
efflux ratio (BCRP (human) [2]): 34
CLint scaled [3]: 28.3 mL/min/kg
Kd [4]: 3.7 nM
IC50 [5]: 180 nM
Papp (BCRP (human) [6]): 0.7 ×10⁻⁶ cm/s
Vd [7]: 1.7 L/kg
Kd [8]: 470 nM
efflux ratio (P-glycoprotein (human)): 1.2
inhibition [9]: 45%
bioavailability [10]: 5%
concentration at 0.5 h [11]: 2140 ng/mL
Kp uu at 0.5 h [12]: 0.11
clearance [13]: 158 mL/min/kg
Activity [14]: Non-Toxic
Kp at 0.5 h [15]: 0.31
Kd [16]: 3.9 nM
concentration at 0.5 h [17]: 256 ng/g
Kp uu at 0.5 h [18]: 0.02

Cc1c(Nc2nc(N)c3c(C#N)c(N4CCC[C@H]4C)n(C)c3n2)cnn1[C@H]1CCOC1
Kd [1]: 430 nM
efflux ratio (BCRP (human) [2]): 22
CLint scaled [3]: 23.3 mL/min/kg
Kd [4]: 6.6 nM
IC50 [5]: 140 nM
Papp (BCRP (human) [6]): 1.2 ×10⁻⁶ cm/s
Vd [7]: 1.1 L/kg
Kd [8]: 67 nM
concentration at 1 h [19]: 100 ng/mL
concentration at 1 h [20]: 17 ng/g
efflux ratio (P-glycoprotein (human)): 0.9
inhibition [9]: 29%
Kp at 1 h [21]: 0.04
bioavailability [10]: < 1%
Kp at 1 h [22]: 0.15
Kp uu at 1 h [23]: 0.014
clearance [13]: 76.7 mL/min/kg
Activity [14]: Non-Toxic
concentration at 0.5 h [24]: 1610 ng/mL
Kp uu at 1 h [25]: 0.056
concentration at 1 h [26]: 440 ng/mL
concentration at 0.5 h [27]: 73 ng/g
Kd [16]: 5.5 nM
concentration at 1 h [28]: 675 ng/g
Kp uu at 0.5 h [18]: 0.02
